The values below come from patent US10894790B2, “Production method of thiazole derivative” (KYOWA KIRIN CO., LTD., priority 2015, dated 2021).

Data set [1] is described as follows: Stability test (preservation of crystal, powder X-ray diffraction). In kind it is physicochemical. The procedure:
Powder X-ray diffraction (permeation method) was measured by pulverizing a sample in an agate mortar, placing an appropriate amount thereof on a sample plate, and measuring diffraction peaks by changing the diffraction angle 2θ from 5° to 40°. The irradiate X ray used was copper Kα ray (CuKα ray), and tube voltage was set to […], tube electric current was set to 40 mA, step angle was set to 0.017°, and counting time was set to 0.56°/sec. The thermal analysis was performed by placing about 2 mg of a sample on an aluminum cell, and measuring differential scanning calorie (DSC) at a temperature rise rate of 10° C./min.
The A crystal obtained in Example 12 was preserved under the conditions of 40° C./75% RH (relative humidity) and 40° C./90% RH (relative humidity) for 6 months each, and powder X-ray diffraction was measured. […] It was confirmed that A crystal is stable even after preservation for a long term under humidified conditions of 40° C./75% RH (relative humidity) and 40° C./90% RH (relative humidity).
The HA crystal obtained in Example 11 was preserved for 2 weeks at 60° C., and then powder X-ray diffraction was measured. […] That is, a part of HA crystal is considered to undergo crystal transition to A crystal at 60° C.

Data set [2] in a line: Absorbability test: plasma kinetics of compound IA after oral administration. The class given is in vivo. As to conditions: male rats; for Cmax / tmax / AUC(0-inf) / half-life / AUC0→∞ / t1/2: plasma compound IA. Here is the method: HA crystal and A crystal obtained in Examples 11 and 12 were orally administered to male rats respectively, and plasma kinetics of compound IA were evaluated.

[3] abbreviates: male, rat, plasma, po, 10 mg/kg.

The structures appear in SMILES notation. Like-named read-outs stand apart in the source and are kept apart here.

On to `Cc1ccc(C(=O)Nc2nc(-c3ccco3)c(C(=O)C3CCOCC3)s2)cn1` [HA crystal], for which the “change of powder X-ray diffraction pattern after preservation” value in data set [1] (60° C., 2 weeks) is on record as “show a diffraction peak characteristic of A crystal”. Further, the “bioavailability (in words)” value in data set [2] was “good bioavailability”. The BA in data set [2] (dose 1 mg/kg) is given as 59.5%; in data set [2] (dose 10 mg/kg) it was 56.8%. Moreover, the peak concentration (Cmax) (in general, the peak of the concentration-time curve) is 1500 ± 100 ng/mL in data set [2] (male, rat, plasma, po, 1 mg/kg, dose 1 mg/kg, read-out: Cmax) and 10900 ± 800 ng/mL in data set [2] (male, rat, plasma, po, 10 mg/kg, dose 10 mg/kg, read-out: Cmax). Also, the tmax was 1.33 ± 0.58 h in data set [2] (male, rat, plasma, po, 1 mg/kg, dose 1 mg/kg, read-out: tmax) and 2 h in data set [2] (male, rat, plasma, po, 10 mg/kg, dose 10 mg/kg, read-out: tmax). Also, the AUC(0-inf) (usually the area under the concentration-time curve extrapolated to infinity) is 5930 ng·h/mL in data set [2] (male, rat, plasma, po, 1 mg/kg) and 56600 ng·h/mL in data set [2] (setting [3]). Also, the half-life (commonly the time needed for the level to fall by half in the phase considered) is 2.08 ± 0.13 h in data set [2] (male, rat, plasma, po, 1 mg/kg) and 3.43 ± 1.14 h in data set [2] (setting [3]).
As to `Cc1ccc(C(=O)Nc2nc(-c3ccco3)c(C(=O)C3CCOCC3)s2)cn1` [A crystal], in data set [1] (40° C./75% RH, 6 months), the “change of powder X-ray diffraction pattern after preservation” value is “did not show any change”. Moreover, the “change of powder X-ray diffraction pattern after preservation” value in data set [1] (40° C./90% RH, 6 months) is recorded as “did not show any change”. Moreover, in data set [2], the “bioavailability (in words)” value is listed as “good bioavailability” and the “rise of plasma concentration, A crystal compared with HA crystal” value is “increased more rapidly”. Further, in data set [2] (dose 1 mg/kg), the BA is given as 53.7%, the “AUC0→∞” value stood at 5350 ng·h/mL, the Cmax turned out to be 1410 ± 270 ng/mL and the t1/2 amounted to 2.26 ± 0.26 h. In data set [2] (dose 1 mg/kg), this compound registered a tmax of 1.00 ± 0.00 h. In addition, in data set [2] (dose 10 mg/kg), the BA was determined as 51.2%, the “AUC0→∞” value was found to be 51000 ng·h/mL, the highest concentration (Cmax) was 11400 ± 1400 ng/mL and the t1/2 is 1.77 ± 0.09 h. The compound also yielded a tmax in data set [2] (dose 10 mg/kg) of 1.67 ± 0.58 h.
